{
  "source": "ChEMBL document CHEMBL4304782",
  "about": "“Antioxidant, Anti-inflammatory, and Neuroprotective Effects of Novel Vinyl Sulfonate Compounds as Nrf2 Activator” (ACS Med Chem Lett, 2019)",
  "biological_target": "T1, Nuclear factor erythroid 2-related factor 2 (Homo sapiens, UniProt Q16236)",
  "T1 sequence (Q16236 whole entry)": "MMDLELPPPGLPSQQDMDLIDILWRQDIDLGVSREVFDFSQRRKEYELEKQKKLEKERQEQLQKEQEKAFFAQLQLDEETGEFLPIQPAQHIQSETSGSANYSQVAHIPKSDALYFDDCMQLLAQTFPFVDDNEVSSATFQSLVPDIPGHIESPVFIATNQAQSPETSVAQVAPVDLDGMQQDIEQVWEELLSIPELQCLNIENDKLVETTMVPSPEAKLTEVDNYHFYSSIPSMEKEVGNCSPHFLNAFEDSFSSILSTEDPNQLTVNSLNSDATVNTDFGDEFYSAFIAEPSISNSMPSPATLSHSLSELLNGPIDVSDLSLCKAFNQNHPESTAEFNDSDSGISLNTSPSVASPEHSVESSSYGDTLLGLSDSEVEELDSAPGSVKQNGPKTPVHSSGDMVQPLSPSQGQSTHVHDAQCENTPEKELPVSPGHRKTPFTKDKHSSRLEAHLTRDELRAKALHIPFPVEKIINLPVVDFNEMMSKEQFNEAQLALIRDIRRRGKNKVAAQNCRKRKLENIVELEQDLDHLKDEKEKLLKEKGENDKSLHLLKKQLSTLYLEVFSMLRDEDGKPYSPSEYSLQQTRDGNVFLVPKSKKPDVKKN",
  "assay": "Activation of ED-tagged Nrf2 in human U2OS cells co-expressing Keap1 assessed as induction of NRF2 translocation to nucleus after 6 hrs by beta-galactosidase based chemiluminescent assay",
  "assay_type": "cell-based",
  "data": [
    {"smiles": "O=S(=O)(/C=C/c1ccccc1Cl)Nc1ccccc1", "values": [
      {"measurement": "EC50", "value": "> 10", "unit": "µM"}
    ]}
  ]
}
